Where a name gives a salt, the structure may show the parent alone.
Tests used:
[1] = Solubility in octanol (content in the organic phase by UV/VIS spectroscopy, pH values); type: physicochemical; conditions: for pH value: solubility test in octanol
Experimental: Solubility tests were carried out in octanol and the content in the organic phase was investigated by UV/VIS spectroscopy and the pH values.

[2] = test system: rabbits incubated with E. coli; conditions: cited from earlier work
[3] = rabbits incubated with E. coli, lidocaine administration

Row | Content (solubility in octanol, content in the organic phase) [1] | pH value [1] | Compound | incidence of pulmonary oedema ([2]; compared to a comparison group) | albumin content in the bronchoalveolar lavage ([2]; lidocaine group) | leucocytes in the bronchoalveolar lavage ([2]; lidocaine group) | haemorrhages, alveolar septal thickening and number of inflammatory cells in the alveolar space ([2]; rabbit, in vivo) | lung mechanics (compliance, resistance) [2, 3] | paO2 [2, 3]
1 | completely dissolved (100%) | 8.5 | CCN(CC)CCOC(=O)c1ccc(N)cc1 [Procaine, 4-aminobenzoic acid-2-(N,N-diethylamino)ethyl ester] | – | – | – | – | – | –
2 | 8% | 4.5 | CCN(CC)CCOC(=O)c1ccc(N)cc1 [Procaine hydrochloride] | – | – | – | – | – | –
3 | – | – | CCN(CC)CC(=O)Nc1c(C)cccc1C [lidocaine] | reduced incidence | lower | fewer | visibly reduced | improved | increase
